{"source": "patent US4840785A", "about": "“Mammal intestinal hormone precursor and its use” (priority 1985, dated 1989)", "key": {"[1]": {"system": "pancreas of the anesthetized cat", "experiment": "secretin bioassay: stimulation of secretion of alkali in the pancreatic juice in the anesthetized cat", "assay_type": "in vivo", "procedure": "The biological activity was measured by the ability to stimulate the secretion of alkali in the pancreatic juice in the anesthetized cat (Mutt, v. and Soderberg, U. On the assay of secretin. Ark.Kem. 15, 63-68, 1959). The sample was compared to a secretin standard with an established activity of 3500 units per mg. […] Proteolytic fragmentation"}, "[2]": {"system": "pancreas of the anesthetized cat", "conditions": "standard used for comparison; cited from earlier work"}}, "note": "Several values for one entry are separate records, joined by “and”; a condition that tells them apart may be missing. Equal entries are not always repeated. No end group written: not given here.", "data": [{"substance": "secretin (HSDGTFTSELSRLRDSARLQRLLQGLV-NH2; UniProt P63298 33-59, looked up) [porcine secretin, intestinal hormone peptide composed of 27 amino acid residues, C-terminal valine amidated]", "values": [{"measurement": "ALKALI SECRETED", "setting": "[1]; Cat. 1, dose 47 pmole", "value": "130 μequiv. and 116 μequiv."}, {"measurement": "ALKALI SECRETED per dose", "setting": "[1]; Cat. 1, dose 47 pmole", "value": "2.7 μequiv.pmole and 2.5 μequiv.pmole"}, {"measurement": "ALKALI SECRETED", "setting": "[1]; Cat. 1, dose 94 pmole", "value": "182 μequiv. and 170 μequiv."}, {"measurement": "ALKALI SECRETED per dose", "setting": "[1]; Cat. 1, dose 94 pmole", "value": "1.9 μequiv.pmole and 1.8 μequiv.pmole"}, {"measurement": "ALKALI SECRETED", "setting": "[1]; Cat. 2, dose 47 pmole", "value": 110, "unit": "μequiv."}, {"measurement": "ALKALI SECRETED per dose", "setting": "[1]; Cat. 2, dose 47 pmole", "value": 2.3, "unit": "μequiv.pmole"}, {"measurement": "ALKALI SECRETED", "setting": "[1]; Cat. 2, dose 94 pmole", "value": 150, "unit": "μequiv."}, {"measurement": "ALKALI SECRETED per dose", "setting": "[1]; Cat. 2, dose 94 pmole", "value": 1.6, "unit": "μequiv.pmole"}, {"measurement": "established activity of secretin standard", "setting": "[2]", "value": 3500, "unit": "units per mg"}]}]}
